Our source for the IC50 values is BindingDB's records for patent USRE49080 (Novartis AG, 2022).

The target of the assay is T1, Sodium/glucose cotransporter 2 (Homo sapiens, UniProt P31639).
T1 sequence (P31639 whole entry): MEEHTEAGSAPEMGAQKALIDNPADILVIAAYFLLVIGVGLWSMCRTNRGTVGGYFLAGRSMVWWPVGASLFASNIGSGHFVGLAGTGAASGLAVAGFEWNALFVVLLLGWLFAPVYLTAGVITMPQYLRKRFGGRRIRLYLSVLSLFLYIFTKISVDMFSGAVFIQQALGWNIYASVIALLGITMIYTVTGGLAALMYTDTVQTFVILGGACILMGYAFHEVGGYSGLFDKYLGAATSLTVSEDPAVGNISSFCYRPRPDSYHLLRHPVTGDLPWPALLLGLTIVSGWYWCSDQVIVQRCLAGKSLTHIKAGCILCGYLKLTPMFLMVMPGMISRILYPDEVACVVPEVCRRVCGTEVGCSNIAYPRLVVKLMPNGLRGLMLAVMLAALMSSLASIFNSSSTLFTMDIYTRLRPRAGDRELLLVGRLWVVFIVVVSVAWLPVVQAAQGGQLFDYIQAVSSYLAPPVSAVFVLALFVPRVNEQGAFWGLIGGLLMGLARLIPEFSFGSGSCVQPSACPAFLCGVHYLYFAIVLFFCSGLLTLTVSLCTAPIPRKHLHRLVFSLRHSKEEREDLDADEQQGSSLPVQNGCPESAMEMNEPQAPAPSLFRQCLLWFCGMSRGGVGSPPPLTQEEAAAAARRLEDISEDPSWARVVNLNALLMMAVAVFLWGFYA
Briefly: Inhibitory Effect on the Sodium-dependent Glucose Co-Transporter SGLT, SGLT1 and SGLT2. As for the experimental part:
The SGLT-2 assay is carried out as follows: CHO-hSGLT2 cells are cultivated in Ham's F12 Medium (BioWhittaker) with 10% foetal calf serum and 250 μg/mL zeocin (Invitrogen), and HEK293-hSGLT2 cells are cultivated in DMEM medium with 10% foetal calf serum and 250 μg/mL zeocin (Invitrogen). The cells are detached from the culture flasks by washing twice with PBS and subsequently treating with trypsin/EDTA. After the addition of cell culture medium the cells are centrifuged, resuspended in culture medium and counted in a Casy cell counter. Then 40,000 cells per well are seeded into a white, 96-well plate coated with poly-D-lysine and incubated overnight at 37° C., 5% CO2. […] 250 μl of assay buffer and 5 μl of test compound are then added to each well and the plate is incubated for a further 15 minutes in the incubator. 5 μl of 10% DMSO are used as the negative control. The reaction is started by adding 5 μl of 14 C-AMG (0.05 μCi) to each well. After 2 hours' incubation at 37° C., 5% CO2, the cells are washed again with 250 μl of PBS ([…]) and then lysed by the addition of 25 μl of 0.1 N NaOH (5 min. at 37° C.). 200 μl of MicroScint20 (Packard) are added to each well and incubation is continued for a further 20 min at 37° C.

With `CN1CCOc2ccc(Cc3cc([C@@H]4O[C@H](CO)[C@@H](O)[C@H](O)[C@H]4O)ccc3Cl)cc21` [USRE49080, Example 11], the IC50 – broadly, the concentration needed to halve the response being measured – is 1.4 nM.
